Measurements taken from a compilation of properties of binary mixtures (doi:10.1016/j.jct.2020.106093).

Assay: xn = mol fraction of the nth substance listed
Conditions: 100.9 kPa, x2 = 0

O + CC(=O)[O-].CC[NH2+]CC
Conditions | speed of sound [m/s] | viscosity [mPa·s]
283.15 K | – | 1.306
288.15 K | – | 1.138
290.65 K | – | 1.066
293.15 K | – | 1.002
295.65 K | – | 0.943
298.15 K | – | 0.89
303.15 K | – | 0.797
305.65 K | – | 0.757
308.15 K | – | 0.719
310.65 K | – | 0.685
313.15 K | 1529.2 | 0.653
315.65 K | – | 0.624
318.15 K | 1536.8 | 0.596
323.15 K | – | 0.547
325.65 K | – | 0.525
328.15 K | – | 0.504
330.65 K | – | 0.485
333.15 K | – | 0.466
338.15 K | – | 0.433
340.65 K | – | 0.418
